Measured values as given in patent publication US20210196711A1, “LYSINE-SPECIFIC HISTONE DEMETHYLASE AS A NOVEL THERAPEUTIC TARGET IN MYELOPROLIFERATIVE NEOPLASMS” (Imago Biosciences, Inc., priority 2015, published 2021).
Where a name gives a salt, the structure may show the parent alone.

Legend:
[1] = system: JAK2^V617F knock-in mouse model of myeloproliferative neoplasm (MPN); experiment: JAK2V617F knock-in mouse model of myeloproliferative neoplasm; type: in vivo; settings: JAK2^V617F mice, 25 mg/kg/day, 56 days, compared to vehicle
Protocol: Compound [IMG 7289; need number or name inserted] was evaluated in the JAK2^V617F knock-in mouse model of myeloproliferative neoplasm (MPN). The procedure of Hasan et al. Blood, 2013, 122, 1464-1477, was followed. (See also Mullally et al. Cancer Cell 2010, 17, 584-596.) Animals bearing the JAK2^V617F were treated with Compound 2 tosylate (25 mg/kg/day) or vehicle for a total of 56 days. Blood samples were taken at the indicated time points and analyzed for hematocrit, white blood cell count (WBC) and platelets as described in Hasan et al. Non-drug-treated animals expressing the JAK2^V617F mutation manifested elevated levels of platelets, WBCs, and hematocrit as compared to wild-type animals.

[2] = primary myelofibrosis patients, 50 to 100 mg/day in combination with prednisone; cited from earlier work

SMILES	hematocrit [1]	platelet levels [1]	white blood cell count [1]	patients with improved anemia and thrombocytopenia [2]	patients with reduced spleen size [2]
CN1CCN(C(=O)[C@H](CCCN[C@@H]2C[C@H]2c2ccc(F)cc2)NC(=O)c2ccc(-n3ccnn3)cc2)CC1 [Compound 2 tosylate]	reduction	reduction	reduction		
O=C1CCC(N2C(=O)c3ccccc3C2=O)C(=O)N1 (centres unmarked) [Thalidomide]				approximately 60%	approximately 20%
